Experiments:
Assay type in all cases: cell-based
Porphyromonas gingivalis = test: Twenty-four hour optical density growth in BHI; conditions: P gingivalis
Description: (§1) The extent of growth of the tested bacteria in response to selected saccharides (myo-inositol, D-lactitol, D-turanose and N-acetyl-D-mannosamine) was investigated by setting up growth curves in a nutritionally rich medium (brain heart infusion broth (BHI), Oxoid), over 24 hours. Late exponential growth phase liquid cultures were prepared by transferring the respective bacterium from blood agar plates to BHI and overnight incubation at 37° C. in an anaerobic atmosphere for A. viscosus, V. parvula, F. nucleatum, P. gingivalis, P. intermedia, T. forsythia, A. naeslundii, and C. sputigena, and in a 5% CO2 environment for S. salivarius, S. sanguinis, S. mitis, A. actinomycetemcomitans, S. mutans, S. sobrinus and S. gordonii. Overnight cultures were transferred to BHI and adjusted to a concentration of 1×10^7 CFU/ml (colony forming units per ml) by measuring the optical density at 600 nm (OD600) (BioRad SmartSpec 3000). For each strain, 200 μl of the bacterial suspension was added to a 96-well plate containing 20 μl of the respective saccharides. Final concentrations of the saccharides were set to 5, 10, 20 and 25 μmol/ml. […] Plates were incubated as previously described.
(§2) For each combination of bacterium/saccharide, and for each of their respective controls (i.e. the particular bacterium in the nutritionally rich medium with no saccharide), the optical density was measured at 630 nm (OD630) at 0 h and 24 h (Thermo Scientific Multiskan Ascent). Additionally, the OD630 for combinations of bacterium/saccharides grown in a 5% CO2 environment were also measured every hour between 0 h and 9 h.
(§3) The experiment was carried out on three different days (thus providing 3 biological replicas) and on each day the experiment was carried out in quadruple (thus providing 4 technical replicas) for each combination of bacterium with saccharide and for each control. For each day and for each combination, the average (mean) of the values obtained (as detailed above) for the four technical replicas was calculated to provide a single value for each combination on each day. The values shown in Tables 5a,b to 6a,b, below, are the average (mean) of the three single values obtained for each combination of bacterium with saccharide.

Prevotella intermedia = test: Twenty-four hour optical density growth in BHI; conditions: P intermedia
Description: as §1, §2, §3

A. actinomycetemcomitans = test: Twenty-four hour biofilm growth (crystal violet)
Outline: (§4)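 Cultures grown in BHI at 37° C under 5% CO2 (S. salivarius, S. mitis, A. actinomycetemcomitans) or anaerobically (A. viscosus), inoculated at 1×10^7 CFU/ml with saccharides at 5–25 μmol/ml final for 24 h. Ethanol-fixed biofilm stained with crystal violet, A630 read against chlorhexidine background; mean of 3 days × 4 replicates.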

A. viscosus = test: Twenty-four hour biofilm growth (crystal violet)
Outline: as §4

P. gingivalis = test: Twenty-four hour biofilm growth (crystal violet)
P. intermedia = test: Twenty-four hour biofilm growth (crystal violet)
S. gordonii = test: Twenty-four hour biofilm growth (crystal violet)
Outline: (§5)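 Bacteria at 1×10^7 CFU/ml in BHI were grown 24 h at 37 °C with D-turanose, D-lactitol, myo-inositol or N-acetyl-D-mannosamine (final 5, 10, 20, 25 μmol/ml), anaerobically for A. viscosus and in 5% CO2 for the others. Ethanol-fixed biofilm was stained with crystal violet and read at 630 nm.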

S. mutans = test: Twenty-four hour biofilm growth (crystal violet); conditions: S mutans
Outline: as §5

S. sanguinis = test: Twenty-four hour biofilm growth (crystal violet)
Outline: as §5

T. forsythia = test: Twenty-four hour biofilm growth (crystal violet)
[1] = system: beneficial oral bacteria and pathogenic oral bacteria; test: Twenty-four hour optical density, overall prebiotic assessment; conditions: concentrations of 5, 10, 20 and 25 μmol/ml
Excerpt: Substrates that were able to increase the growth (or maximal growth density or extent of growth) of at least one of the above beneficial bacteria while not or only minimally increasing the growth (or maximal growth density) of the pathogenic bacteria are considered to be prebiotic compounds.
The extent of growth of the tested bacteria in response to selected saccharides (myo-inositol, D-lactitol, D-turanose and N-acetyl-D-mannosamine) was investigated by setting up growth curves in a nutritionally rich medium (brain heart infusion broth (BHI), Oxoid), over 24 hours. Late exponential growth phase liquid cultures were prepared by transferring the respective bacterium from blood agar plates to BHI and overnight incubation at 37° C. in an anaerobic atmosphere for A. viscosus, V. parvula, F. nucleatum, P. gingivalis, P. intermedia, T. forsythia, A. naeslundii, and C. sputigena, and in a 5% CO2 environment for S. salivarius, S. sanguinis, S. mitis, A. actinomycetemcomitans, S. mutans, S. sobrinus and S. gordonii. […]
as §2
as §3, with “The values shown in Tables 5a,b to 6a,b, below, are the average (mean) of the three single values obtained for each combination of bacterium with saccharide.” left out

Compound: OC[C@H]1O[C@@](O)(CO)[C@@H](O[C@H]2O[C@H](CO)[C@@H](O)[C@H](O)[C@H]2O)[C@@H]1O [D-Turanose, α-D-glucopyranosyl-(1→3)-α-D-fructofuranose]
- extent of growth: maximal OD630 over 24 hr divided by maximal OD of control (control = 1) (Porphyromonas gingivalis; 5 μmol/ml): 0.9385
- extent of growth: maximal OD630 over 24 hr divided by maximal OD of control (control = 1) (Porphyromonas gingivalis; 10 μmol/ml): 0.9601
- extent of growth: maximal OD630 over 24 hr divided by maximal OD of control (control = 1) (Porphyromonas gingivalis; 20 μmol/ml): 0.9183
- extent of growth: maximal OD630 over 24 hr divided by maximal OD of control (control = 1) (Porphyromonas gingivalis; 25 μmol/ml): 0.9574
- extent of growth: maximal OD630 over 24 hr divided by maximal OD of control (control = 1) (Prevotella intermedia; 5 μmol/ml): 1.1488
- extent of growth: maximal OD630 over 24 hr divided by maximal OD of control (control = 1) (Prevotella intermedia; 10 μmol/ml): 1.1312
- extent of growth: maximal OD630 over 24 hr divided by maximal OD of control (control = 1) (Prevotella intermedia; 20 μmol/ml): 1.0407
- extent of growth: maximal OD630 over 24 hr divided by maximal OD of control (control = 1) (Prevotella intermedia; 25 μmol/ml): 0.9664
- biofilm growth: OD 630 nm at 24 hrs divided by OD of control (control = 1) (A. actinomycetemcomitans; 5 μmol/ml): 0.9734
- biofilm growth: OD 630 nm at 24 hrs divided by OD of control (control = 1) (A. actinomycetemcomitans; 10 μmol/ml): 0.9794
- biofilm growth: OD 630 nm at 24 hrs divided by OD of control (control = 1) (A. actinomycetemcomitans; 20 μmol/ml): 1.0297
- biofilm growth: OD 630 nm at 24 hrs divided by OD of control (control = 1) (A. actinomycetemcomitans; 25 μmol/ml): 0.9417
- biofilm growth: OD 630 nm at 24 hrs divided by OD of control (control = 1) (A. viscosus; 5 μmol/ml): 0.1692
- biofilm growth: OD 630 nm at 24 hrs divided by OD of control (control = 1) (A. viscosus; 10 μmol/ml): 0.0920
- biofilm growth: OD 630 nm at 24 hrs divided by OD of control (control = 1) (A. viscosus; 20 μmol/ml): 0.0289
- biofilm growth: OD 630 nm at 24 hrs divided by OD of control (control = 1) (A. viscosus; 25 μmol/ml): 0.0366
- biofilm growth: OD 630 nm at 24 hrs divided by OD of control (control = 1) (P. gingivalis; 5 μmol/ml): 0.9121
- biofilm growth: OD 630 nm at 24 hrs divided by OD of control (control = 1) (P. gingivalis; 10 μmol/ml): 0.8700
- biofilm growth: OD 630 nm at 24 hrs divided by OD of control (control = 1) (P. gingivalis; 20 μmol/ml): 0.9602
- biofilm growth: OD 630 nm at 24 hrs divided by OD of control (control = 1) (P. gingivalis; 25 μmol/ml): 0.9613
- biofilm growth: OD 630 nm at 24 hrs divided by OD of control (control = 1) (P. intermedia; 5 μmol/ml): 2.0059
- biofilm growth: OD 630 nm at 24 hrs divided by OD of control (control = 1) (P. intermedia; 10 μmol/ml): 1.8143
- biofilm growth: OD 630 nm at 24 hrs divided by OD of control (control = 1) (P. intermedia; 20 μmol/ml): 1.5017
- biofilm growth: OD 630 nm at 24 hrs divided by OD of control (control = 1) (P. intermedia; 25 μmol/ml): 1.1725
- biofilm growth: OD 630 nm at 24 hrs divided by OD of control (control = 1) (S. gordonii; 5 μmol/ml): 1.0874
- biofilm growth: OD 630 nm at 24 hrs divided by OD of control (control = 1) (S. gordonii; 10 μmol/ml): 1.1335
- biofilm growth: OD 630 nm at 24 hrs divided by OD of control (control = 1) (S. gordonii; 20 μmol/ml): 1.1002
- biofilm growth: OD 630 nm at 24 hrs divided by OD of control (control = 1) (S. gordonii; 25 μmol/ml): 1.2536
- biofilm growth: OD 630 nm at 24 hrs divided by OD of control (control = 1) (S. mutans; 5 μmol/ml): 1.0356
- biofilm growth: OD 630 nm at 24 hrs divided by OD of control (control = 1) (S. mutans; 10 μmol/ml): 1.1168
- biofilm growth: OD 630 nm at 24 hrs divided by OD of control (control = 1) (S. mutans; 20 μmol/ml): 1.1403
- biofilm growth: OD 630 nm at 24 hrs divided by OD of control (control = 1) (S. mutans; 25 μmol/ml): 1.1529
- biofilm growth: OD 630 nm at 24 hrs divided by OD of control (control = 1) (S. sanguinis; 5 μmol/ml): 2.0761
- biofilm growth: OD 630 nm at 24 hrs divided by OD of control (control = 1) (S. sanguinis; 10 μmol/ml): 2.7352
- biofilm growth: OD 630 nm at 24 hrs divided by OD of control (control = 1) (S. sanguinis; 20 μmol/ml): 1.6356
- biofilm growth: OD 630 nm at 24 hrs divided by OD of control (control = 1) (S. sanguinis; 25 μmol/ml): 1.9363
- biofilm growth: OD 630 nm at 24 hrs divided by OD of control (control = 1) (T. forsythia; 5 μmol/ml): 0.8918
- biofilm growth: OD 630 nm at 24 hrs divided by OD of control (control = 1) (T. forsythia; 10 μmol/ml): 0.9297
- biofilm growth: OD 630 nm at 24 hrs divided by OD of control (control = 1) (T. forsythia; 20 μmol/ml): 0.7855
- biofilm growth: OD 630 nm at 24 hrs divided by OD of control (control = 1) (T. forsythia; 25 μmol/ml): 0.8404
- prebiotic effects (extent of growth, threshold value 1.25) [1]: exhibited prebiotic effects

— patent US11419806B2, “Prebiotic oral care methods using a saccharide” (Colgate-Palmolive Company, priority 2013, dated 2022)
